Assay results as given in patent US20090118253A1, “COMPOSITIONS AND METHODS FOR TREATING DYSFUNCTIONAL UTERINE BLEEDING” (REPROS THERAPEUTICS INC., priority 2007, published 2009).

Tests used:
[1] = tested on: pre-menopausal adult women diagnosed with endometriosis; assay: Six month endometriosis study: side effects and bleeding events; format: in vivo, human
Procedure: Although this was a small study and no definitive conclusions can be made from the safety data, there was no single signal of safety observed.
A similar event was not seen at the 50 mg dose during the treatment phase. Greater than normal bleeding occurred in two patients in the 50 mg CDB-4124 group after treatment was stopped and a D&C was performed in one and the other successfully managed conservatively.

[2] = Six month endometriosis study: estrogen concentrations and biomarkers of bone resorption; settings: women
Procedure: Thirty-nine pre-menopausal adult women diagnosed with endometriosis were the subject of a six month study of Proellex™ (CDB-4124) in the treatment of endometriosis. The study included three dose levels of CDB-4124 as well as a positive control arm. The positive control was Lucrin®, a GnRH agonist, commonly used for the treatment of endometriosis (also known as Lupron®). CDB-4124 was administered in a double blinded fashion as a daily oral capsule at dosages of 12.5mg/day (n=2), 25mg/day (n=3) and 50mg/day (n=3). Another group (n=4) were injected with a slow release formulation of Lucrin® once per month as a positive control.

[3] = tested on: Cynomolgus monkey endometrial epithelia, uterus stroma and breast; assay: BrdU incorporation, tissue proliferation in cynomolgus monkeys; format: in vivo, Cynomolgus monkeys (Macaca fascicularis); settings: week 36, % cells positive for incorporation of BrdU, three animals per group
Procedure: At week 36, three animals from each group of Example 6 were injected within 24 hours of sacrifice with the thymidine analog bromodeoxyuridine (BrdU), a marker of proliferating cells and their progeny, to assess tissue proliferation. Full thickness uterine sections were stained and examined microscopically for evidence of proliferation in terms of the % cells positive for incorporation of BrdU: […]

[4] = tested on: Cynomolgus monkey endometrial epithelium, uterus stroma and breast; assay: TUNEL apoptosis in cynomolgus monkey tissue; format: in vivo, Cynomolgus monkeys (Macaca fascicularis); settings: week 36, percent apoptotic cells
Procedure: Apoptosis was assessed in tissue from the same animals on slides by the terminal deoxynucleotidyl transferase mediated dUTP-biotin nick end labeling (TUNEL) technique.

[5] = Urinary estrogen levels (follicular phase) in cynomolgus monkeys; format: in vivo, Cynomolgus monkeys (Macaca fascicularis); design: Urinary estrogen, follicular phase, Mean: unit not given here; settings: for Urinary estrogen, follicular phase, Mean: CDB-4124 or RU-486 oral 1.0 mg/kg/day, Lupron IM once per month
Procedure: Cynomolgus monkeys (Macaca fascicularis) (n=14) were treated orally for 36 weeks with CDB-4124 or RU-486 at 1.0 mg/kg/day or with placebo (control). Another group (n=14) received Lupron® IM once per month. Urinary progesterone levels were measured for each animal for one month during the middle of the study (weeks 14-17) and for the last month of the study (weeks 33-36). The results are presented below:
Urinary estrogen levels were measured for each animal of Example 6 for one month during the middle of the study (weeks 14-17) and for the last month of the study (weeks 33-36). The follicular phase results are based on 35 baseline ovulating cycles.

[6] = molecular target: T1, glucocorticoid receptor (rbGR) (Oryctolagus cuniculus, UniProt P59667); assay: Glucocorticoid receptor binding / anti-glucocorticoid receptor activity; design: species or system rabbit
T1 construct: cytosol containing PR or GR were prepared in TEGMD buffer; from tissue; host or cells: thymus of estradiol-primed immature rabbits (cytosol)
T1 sequence (P59667 1-772): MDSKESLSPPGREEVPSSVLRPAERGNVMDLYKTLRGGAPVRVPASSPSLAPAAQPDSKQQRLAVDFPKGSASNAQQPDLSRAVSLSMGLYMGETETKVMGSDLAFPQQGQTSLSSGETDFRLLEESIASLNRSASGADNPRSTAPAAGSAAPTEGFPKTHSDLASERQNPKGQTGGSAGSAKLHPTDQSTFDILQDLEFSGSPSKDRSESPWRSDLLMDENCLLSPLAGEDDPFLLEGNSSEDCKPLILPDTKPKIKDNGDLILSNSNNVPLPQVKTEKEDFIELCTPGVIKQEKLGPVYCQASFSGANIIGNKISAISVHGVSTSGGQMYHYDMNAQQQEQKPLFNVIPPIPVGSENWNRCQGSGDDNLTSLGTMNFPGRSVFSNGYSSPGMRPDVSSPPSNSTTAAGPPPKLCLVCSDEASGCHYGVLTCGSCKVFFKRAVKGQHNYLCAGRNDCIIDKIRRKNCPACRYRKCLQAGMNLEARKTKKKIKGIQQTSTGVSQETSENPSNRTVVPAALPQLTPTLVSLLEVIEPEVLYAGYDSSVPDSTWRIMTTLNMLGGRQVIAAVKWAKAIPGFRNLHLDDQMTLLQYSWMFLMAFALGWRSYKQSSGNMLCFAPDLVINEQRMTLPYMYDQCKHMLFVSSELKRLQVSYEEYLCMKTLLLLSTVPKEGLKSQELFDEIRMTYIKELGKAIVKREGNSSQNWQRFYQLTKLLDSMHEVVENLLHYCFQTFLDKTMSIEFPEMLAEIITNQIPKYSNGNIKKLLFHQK
Procedure: Certain antiprogestins were tested in receptor-binding assays for their ability to bind rabbit progesterone receptor (rbPR) and glucocorticoid receptor (rbGR). […] For PR binding, the cytosol was incubated with 6 nM 1,2-[^3H]progesterone (50.0 Ci/mmole) and competitors were added at concentrations from 2 to 100 nM. For binding to GR, the cytosol was incubated with 6 nM 6,7-[^3H]-dexamethasone (40 Ci/mmol) and test compounds were added at concentrations from 20 to 100 nM. After overnight incubation at 4 C, bound and unbound [^3H] steroids were separated by addition of dextran-coated charcoal and centrifugation at 2100×g for 15 min at 4 C. Supernatants containing the [3H]-steroid receptor complexes were decanted into vials containing 4 ml Optifluor (Packard Instrument Co.), vortexed, equilibrated in a liquid scintillation counter for 30 minutes and then counted for 2 minutes. […] The standards for the PR and GR assays were unlabeled progesterone and dexamethasone, respectively.

human endometrium = assay: Six month endometriosis study: ultrasound measurements of endometrial thickness; format: in vivo; settings: for Endometrium (mm), 1st dose: 1st dose visit; for Endometrium (mm), screening: screening (baseline)
Excerpt: Women in the study were closely monitored for changes in the structure of the endometrium. […] Comparisons were made to both baseline and visit one ultrasound measurements of endometrial thickness. […]

[7] = Urinary progesterone levels (luteal phase) in cynomolgus monkeys; format: in vivo, Cynomolgus monkeys (Macaca fascicularis); settings: n=14 per group; CDB-4124 or RU-486 oral 1.0 mg/kg/day for 36 weeks; Lupron IM once per month
Procedure: Cynomolgus monkeys (Macaca fascicularis) (n=14) were treated orally for 36 weeks with CDB-4124 or RU-486 at 1.0 mg/kg/day or with placebo (control). Another group (n=14) received Lupron® IM once per month. Urinary progesterone levels were measured for each animal for one month during the middle of the study (weeks 14-17) and for the last month of the study (weeks 33-36).

Compound: COCC(=O)[C@@]1(OC(C)=O)CC[C@H]2[C@@H]3CCC4=CC(=O)CCC4=C3[C@@H](c3ccc(N(C)C)cc3)C[C@@]21C [CDB-4124, 21-methoxy-17α-acetoxy-11β-(4 N,N-dimethylaminophenyl)-19-norpregna-4,9-diene-3,20-dione]
- cases of non-menstrual spotting and bleeding with excessive endometrial thickening needing D&C ([1]; 12.5 mg and 25 mg CDB-4124 groups, treatment phase): two cases
- patients with greater than normal bleeding after treatment was stopped ([1]; 50 mg CDB-4124 group): two patients
- non-menstrual spotting and bleeding with excessive endometrial thickening needing D&C ([1]; 50 mg dose, treatment phase): not seen
- side effects ([1]; women, six month study): generally mild
- estrogen concentrations (mean) ([2]; all doses of CDB-4124 (12.5, 25, 50 mg/day)): > 40 pg/mL
- biomarkers of bone resorption compared with baseline ([2]; three and six months of treatment): no significant changes
- Breast Brdu-% [3]: 1.9 ± 0.7%
- Uterus epithelium Brdu-% [3]: 2.1 ± 2.2%
- Uterus stroma Brdu-% [3]: 1.1 ± 0.25%
- Breast Apo % [4]: 2.6 ± 0.9%
- Uterus epithelium Apo % [4]: 0.5 ± 0.2%
- Uterus stroma Apo % [4]: 0.5 ± 0.1%
- Follicular phase estrogen Lower? ([5]; Week 18): No
- Urinary estrogen, follicular phase, Mean ([5]; Week 18): 63.8
- Follicular phase estrogen Lower? ([5]; Week 36): No
- Urinary estrogen, follicular phase, Mean ([5]; Week 36): 67.3
- anti-glucocorticoid receptor activity / glucocorticoid receptor binding [6]: minimal anti-glucocorticoid receptor activity
- women exhibiting thickened endometrium after three months (human endometrium; 12.5 mg dose (n=4)): two
- Endometrium (mm), 1st dose (human endometrium; 12.5 mg): 8.0 mm
- Endometrium (mm), 3 months (human endometrium; 12.5 mg): 20.33 mm
- Endometrium (mm), screening (human endometrium; 12.5 mg): 7.5 mm
- women exhibiting thickened endometrium after three months (human endometrium; 25 mg dose (n=4)): One
- Endometrium (mm), 1st dose (human endometrium; 25 mg): 11.7 mm
- Endometrium (mm), 3 months (human endometrium; 25 mg): 19.6 mm
- Endometrium (mm), screening (human endometrium; 25 mg): 8.4 mm
- women exhibiting thickened endometrium after three months (human endometrium; 50 mg dose (n=3)): none
- Endometrium (mm), 1st dose (human endometrium; 50 mg): 10.8 mm
- Endometrium (mm), 3 months (human endometrium; 50 mg): 7.7 mm
- Endometrium (mm), screening (human endometrium; 50 mg): 8.0 mm
- Decrease in luteal phase progesterone (number of animals) [7]: 8
- No decrease in luteal phase progesterone (number of animals) [7]: 6
